What was measured:
Assay in all cases: Test A pre-/postemergence greenhouse test
barnyardgrass = assay type: in vivo, Echinochloa crus-galli; details: for Plant response rating, Barnyardgrass: 0 to 100 scale where 0 is no effect and 100 is complete control; for Barnyardgrass plant response rating: 0 to 100 scale
Text: (§1) Seeds of barnyardgrass (Echinochloa crus-galli), crabgrass (Digitaria sanguinalis), giant foxtail (Setaria faberi), morningglory (Ipomoea spp.), redroot pigweed (Amaranthus retroflexus), velvetleaf (Abutilon theophrasti), wheat (Triticum aestivum), and corn (Zea mays) were planted into a blend of loam soil and sand and treated preemergence with a directed soil spray using test compounds formulated in a non-phytotoxic solvent mixture which included a surfactant. At the same time these species were also treated with postemergence applications of test compounds formulated in the same manner. Plants ranged in height from two to ten cm and were in the one- to two-leaf stage for the postemergence treatment. Treated plants and untreated controls were maintained in a greenhouse for approximately ten days, after which time all treated plants were compared to untreated controls and visually evaluated for injury. […] A dash (-) response means no test results.

corn = assay type: in vivo, Zea mays; details: for Plant response rating, Corn: 0 to 100 scale where 0 is no effect and 100 is complete control; for Corn plant response rating: 0 to 100 scale
Text: as §1

redroot pigweed = assay type: in vivo, Amaranthus retroflexus; details: for Plant response rating, Pigweed: 0 to 100 scale where 0 is no effect and 100 is complete control; for Pigweed plant response rating: 0 to 100 scale
Text: as §1

giant foxtail = assay type: in vivo, Setaria faberi; details: for Plant response rating, Foxtail, Giant: 0 to 100 scale where 0 is no effect and 100 is complete control; for Foxtail, Giant plant response rating: 0 to 100 scale
Text: as §1

crabgrass = assay type: in vivo, Digitaria sanguinalis; details: for Plant response rating, Crabgrass, Large: 0 to 100 scale where 0 is no effect and 100 is complete control; for Crabgrass, Large plant response rating: 0 to 100 scale
Text: as §1

morningglory = assay type: in vivo, Ipomoea spp.; details: for Plant response rating, Morningglory: 0 to 100 scale where 0 is no effect and 100 is complete control; for Morningglory plant response rating: 0 to 100 scale
Text: as §1

velvetleaf = assay type: in vivo, Abutilon theophrasti; details: for Plant response rating, Velvetleaf: 0 to 100 scale where 0 is no effect and 100 is complete control; for Velvetleaf plant response rating: 0 to 100 scale
Text: as §1

wheat = assay type: in vivo, Triticum aestivum; details: for Plant response rating, Wheat: 0 to 100 scale where 0 is no effect and 100 is complete control; for Wheat plant response rating: 0 to 100 scale
Text: as §1

[1] = Postemergence, 500 g ai/ha, 0 is no effect, 100 is complete control
[2] = Preemergence, 125 g ai/ha, 0 no effect, 100 complete control
[3] = Preemergence, 500 g ai/ha, 0 no effect, 100 complete control

CCCc1cc[n+]([O-])c([S+]([O-])Cc2c(C(F)(F)F)nn(C)c2OC(F)F)c1 (stereo not drawn) [Compound 116]
Plant response rating, Barnyardgrass (barnyardgrass; Postemergence, 125 g ai/ha): 70
Barnyardgrass plant response rating (barnyardgrass; [1]): 80
Barnyardgrass plant response rating (barnyardgrass; [2]): 70
Barnyardgrass plant response rating (barnyardgrass; [3]): 100
Plant response rating, Corn (corn; Postemergence, 125 g ai/ha): 60
Corn plant response rating (corn; [1]): 90
Corn plant response rating (corn; [2]): 60
Corn plant response rating (corn; [3]): 90
Plant response rating, Pigweed (redroot pigweed; Postemergence, 125 g ai/ha): 70
Pigweed plant response rating (redroot pigweed; [1]): 90
Pigweed plant response rating (redroot pigweed; [2]): 100
Pigweed plant response rating (redroot pigweed; [3]): 100
Plant response rating, Foxtail, Giant (giant foxtail; Postemergence, 125 g ai/ha): 80
Foxtail, Giant plant response rating (giant foxtail; [1]): 90
Foxtail, Giant plant response rating (giant foxtail; [2]): 100
Foxtail, Giant plant response rating (giant foxtail; [3]): 100
Plant response rating, Crabgrass, Large (crabgrass; Postemergence, 125 g ai/ha): 70
Crabgrass, Large plant response rating (crabgrass; [1]): 80
Crabgrass, Large plant response rating (crabgrass; [2]): 90
Crabgrass, Large plant response rating (crabgrass; [3]): 100
Plant response rating, Morningglory (morningglory; Postemergence, 125 g ai/ha): 60
Morningglory plant response rating (morningglory; [1]): 90
Morningglory plant response rating (morningglory; [2]): 100
Morningglory plant response rating (morningglory; [3]): 100
Plant response rating, Velvetleaf (velvetleaf; Postemergence, 125 g ai/ha): 50
Velvetleaf plant response rating (velvetleaf; [1]): 80
Velvetleaf plant response rating (velvetleaf; [2]): 0
Velvetleaf plant response rating (velvetleaf; [3]): 90
Plant response rating, Wheat (wheat; Postemergence, 125 g ai/ha): 50
Wheat plant response rating (wheat; [1]): 60
Wheat plant response rating (wheat; [2]): 50
Wheat plant response rating (wheat; [3]): 80

Cn1nc(C(F)(F)F)c(C[S+]([O-])c2cc(C3CC3)cc[n+]2[O-])c1OCC(F)(F)F (stereo not drawn) [Compound 121]
Plant response rating, Barnyardgrass (barnyardgrass; Postemergence, 125 g ai/ha): 50
Barnyardgrass plant response rating (barnyardgrass; [1]): 70
Barnyardgrass plant response rating (barnyardgrass; [2]): 100
Barnyardgrass plant response rating (barnyardgrass; [3]): 100
Plant response rating, Corn (corn; Postemergence, 125 g ai/ha): 20
Corn plant response rating (corn; [1]): 60
Corn plant response rating (corn; [2]): 60
Corn plant response rating (corn; [3]): 90
Plant response rating, Pigweed (redroot pigweed; Postemergence, 125 g ai/ha): 60
Pigweed plant response rating (redroot pigweed; [1]): 70
Pigweed plant response rating (redroot pigweed; [2]): 100
Pigweed plant response rating (redroot pigweed; [3]): 100
Plant response rating, Foxtail, Giant (giant foxtail; Postemergence, 125 g ai/ha): 50
Foxtail, Giant plant response rating (giant foxtail; [1]): 80
Foxtail, Giant plant response rating (giant foxtail; [2]): 100
Foxtail, Giant plant response rating (giant foxtail; [3]): 100
Plant response rating, Crabgrass, Large (crabgrass; Postemergence, 125 g ai/ha): 30
Crabgrass, Large plant response rating (crabgrass; [1]): 80
Crabgrass, Large plant response rating (crabgrass; [2]): 100
Crabgrass, Large plant response rating (crabgrass; [3]): 100
Plant response rating, Morningglory (morningglory; Postemergence, 125 g ai/ha): 40
Morningglory plant response rating (morningglory; [1]): 60
Morningglory plant response rating (morningglory; [2]): 40
Morningglory plant response rating (morningglory; [3]): 90
Plant response rating, Velvetleaf (velvetleaf; Postemergence, 125 g ai/ha): 40
Velvetleaf plant response rating (velvetleaf; [1]): 70
Velvetleaf plant response rating (velvetleaf; [2]): 60
Velvetleaf plant response rating (velvetleaf; [3]): 80
Plant response rating, Wheat (wheat; Postemergence, 125 g ai/ha): 30
Wheat plant response rating (wheat; [1]): 50
Wheat plant response rating (wheat; [2]): 60
Wheat plant response rating (wheat; [3]): 100

CCCc1cc[n+]([O-])c([S+]([O-])Cc2c(C(F)(F)F)nn(C)c2OCC(F)(F)F)c1 (stereo not drawn) [Compound 114]
Plant response rating, Barnyardgrass (barnyardgrass; Postemergence, 125 g ai/ha): 50
Barnyardgrass plant response rating (barnyardgrass; [1]): 80
Barnyardgrass plant response rating (barnyardgrass; [2]): 90
Barnyardgrass plant response rating (barnyardgrass; [3]): 100
Plant response rating, Corn (corn; Postemergence, 125 g ai/ha): 60
Corn plant response rating (corn; [1]): 70
Corn plant response rating (corn; [2]): 30
Corn plant response rating (corn; [3]): 80
Plant response rating, Pigweed (redroot pigweed; Postemergence, 125 g ai/ha): 70
Pigweed plant response rating (redroot pigweed; [1]): 90
Pigweed plant response rating (redroot pigweed; [2]): 100
Pigweed plant response rating (redroot pigweed; [3]): 100
Plant response rating, Foxtail, Giant (giant foxtail; Postemergence, 125 g ai/ha): 80
Foxtail, Giant plant response rating (giant foxtail; [1]): 90
Foxtail, Giant plant response rating (giant foxtail; [2]): 100
Foxtail, Giant plant response rating (giant foxtail; [3]): 100
Plant response rating, Crabgrass, Large (crabgrass; Postemergence, 125 g ai/ha): 50
Crabgrass, Large plant response rating (crabgrass; [1]): 80
Crabgrass, Large plant response rating (crabgrass; [2]): 90
Crabgrass, Large plant response rating (crabgrass; [3]): 100
Plant response rating, Morningglory (morningglory; Postemergence, 125 g ai/ha): 60
Morningglory plant response rating (morningglory; [1]): 70
Morningglory plant response rating (morningglory; [2]): 70
Morningglory plant response rating (morningglory; [3]): 90
Plant response rating, Velvetleaf (velvetleaf; Postemergence, 125 g ai/ha): 50
Velvetleaf plant response rating (velvetleaf; [1]): 60
Velvetleaf plant response rating (velvetleaf; [2]): 60
Velvetleaf plant response rating (velvetleaf; [3]): 80
Plant response rating, Wheat (wheat; Postemergence, 125 g ai/ha): 50
Wheat plant response rating (wheat; [1]): 70
Wheat plant response rating (wheat; [2]): 60
Wheat plant response rating (wheat; [3]): 90

Source: patent US20100298141A1, “SUBSTITUTED PYRIDINE N-OXIDE HERBICIDES” (E. I. DU PONT DE NEMOURS AND COMPANY, priority 2007, published 2010)
